The target in this assay is IRAK4 (Homo sapiens (Human), UniProt Q9NWZ3). Briefly: IRAK4 kinase activity, IMAP fluorescence polarization assay. The note with it: 100 μM ATP. In kind it is biochemical. Here is the method:
The kinase activity of IRAK4 is determined by its ability to catalyze the phosphorylation of a fluorescent polypeptide substrate. The extent of phosphorylation is measured using IMAP technology (Molecular Devices) where the phosphorylated fluorescent substrate binds to the large M(III)-based nanoparticles which reduces the rotational speed of the substrate and thus increases its fluorescent polarization (FP).
Assay Procedure: A 20 μl reaction mixture contains 10 mM TriHCl, pH 7.2, 0.5 nM GST tagged IRAK4 (SignalChem), 100 nM fluorescent peptide substrate (RP7030, Molecular Devices), 100 μM ATP, 1 mM DTT, 1 mM MgCl2, and 0.01% Tween 20. The reaction is initiated by the addition of ATP. After incubation for 30 minutes at 25° C., 60 μl of Progressive IMAP Reagent (Molecular Devices) is added to stop the reaction. Change in RP7030's FP is determined by a FP reader (Analyst HT, LJL BioSystems)
In general terms: Fluorescence polarisation rises when a labelled molecule tumbles more slowly, as on binding a larger partner.

Where [1] appears, read: 0.5 nM GST tagged IRAK4, read-out: IRAK4 IC50.

Where a name gives a salt, the structure may show the parent alone. Read-outs that look alike come from different tables or passages of the source.

IRAK4, sequence (Q9NWZ3 whole entry): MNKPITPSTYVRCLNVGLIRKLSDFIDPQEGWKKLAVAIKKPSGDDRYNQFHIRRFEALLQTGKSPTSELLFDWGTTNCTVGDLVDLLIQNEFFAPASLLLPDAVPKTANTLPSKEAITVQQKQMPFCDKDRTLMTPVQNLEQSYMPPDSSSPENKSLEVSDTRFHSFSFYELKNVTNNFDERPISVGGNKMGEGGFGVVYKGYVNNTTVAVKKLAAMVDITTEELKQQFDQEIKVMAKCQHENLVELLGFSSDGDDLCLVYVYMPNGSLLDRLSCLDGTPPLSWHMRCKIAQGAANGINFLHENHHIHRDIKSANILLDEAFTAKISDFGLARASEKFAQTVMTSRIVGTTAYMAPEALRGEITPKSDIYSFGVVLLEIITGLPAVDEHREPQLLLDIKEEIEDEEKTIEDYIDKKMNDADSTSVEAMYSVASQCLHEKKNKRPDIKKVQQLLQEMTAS

In general, IC50 refers to the concentration needed to halve the response being measured. Regarding `O=c1[nH]c(N2CCC3(CCN(c4ccccc4)C3)C2)nc(N[C@@H]2CCCNC2)c1-c1nc2ccccc2s1` (stereo partly drawn) [Example 334, 5-(1,3-benzothiazol-2-yl)-2-[7-phenyl-2,7-diazaspiro[4.4]nonan-2-yl]-6-[[(3R)-piperidin-3-yl]amino]-3,4-dihydropyrimidin-4-one], under “read-out: IC50”, the concentration for half-maximal inhibition (IC50) worked out at 21 nM. The same measure, in the same setting: the value for `O=c1[nH]c(C2CCN(CC3CC3)CC2)nc(N[C@@H]2CCCNC2)c1-c1nc2ccccc2s1` [Example 229, 5-(1,3-benzothiazol-2-yl)-2-[1-(cyclo-propylmethyl)piperidin-4-yl]-6-[[(3R)-piperidin-3-yl]amino]-3,4-dihydropyrimidin-4-one] was 340 nM. As for `O=c1[nH]c(N2CCOCC2)nc(N[C@@H]2CCCNC2)c1-c1nc(-c2ccccc2F)cs1` [Example 201], the concentration for half-maximal inhibition (IC50) (read-out: IRAK4 IC50) turned out to be 60 nM. Still for that read-out and setting: the value for `O=c1[nH]c(N2CCN(c3ncccn3)CC2)nc(N[C@@H]2CCCNC2)c1-c1nc2ccccc2s1` [Example 136, (R)-5-(benzo[d]thiazol-2-yl)-6-(piperidin-3-ylamino)-2-(4-(pyrimidin-2-yl)piperazin-1-yl)pyrimidin-4(3H)-one] was 10 nM. Take `O=c1[nH]c(N2CC[C@H](O)C2)nc(N[C@@H]2CCCNC2)c1-c1nc2ccccc2s1` [Example 306, 5-(benzo[d]thiazol-2-yl)-2-((S)-3-hydroxy-pyrrolidin-1-yl)-6-((R)-piperidin-3-ylamino)pyrimidin-4(3H)-one bis(2,2,2-trifluoro-acetate)]: under “read-out: IC50”, the IC50 is 23 nM.

Regarding `COc1ccc(N2CC3CC2CN3c2nc(N[C@@H]3CCCNC3)c(-c3ccc4ccccc4n3)c(=O)[nH]2)cc1` (stereo partly drawn) [Example 195, 2-(5-(4-methoxyphenyl)-2,5-diazabicyclo[2.2.1]heptan-2-yl)-6-((R)-piperidin-3-ylamino)-5-(quinolin-2-yl)pyrimidin-4(3H)-one], the IC50 (read-out: IRAK4 IC50) came to 757 nM. Consider `O=c1[nH]c(N2CCCCC2)nc(N[C@@H]2CCCNC2)c1-c1ccc2ccccc2n1` [Example 115, (R)-2-(piperidin-1-yl)-6-(piperidin-3-ylamino)-5-(quinolin-2-yl)pyrimidin-4(3H)-one.HCl], for which the IC50 under setting [1] was 54 nM. Consider `O=c1[nH]c(N2CCC(NCc3ccccc3)CC2)nc(N[C@@H]2CCCNC2)c1-c1nc2ccccc2s1` [Example 332, 5-(1,3-benzothiazol-2-yl)-2-[4-(benzylamino)piperidin-1-yl]-6-[[(3R)-piperidin-3-yl]amino]-3,4-dihydropyrimidin-4-one trifluoroacetic acid], for which the IC50 (read-out: IC50) was 110 nM.

Regarding `NC1CCCCC1Nc1nc(N2CCOCC2)[nH]c(=O)c1-c1nc2ccccc2s1` (stereo not shown) [Example 263, 6-(2-aminocyclohexylamino)-5-(benzo[d]thiazol-2-yl)-2-morpholino-pyrimidin-4(3H)-one], under “read-out: IC50”, the IC50 is 230 nM. Regarding `CCN1CCC(c2nc(N[C@@H]3CCCNC3)c(-c3nc4ccccc4s3)c(=O)[nH]2)CC1` [Example 227], under “read-out: IC50”, the half-inhibitory concentration (IC50) was 1400 nM. Take `O=c1[nH]c(N2CCCC2)nc(N[C@@H]2CCCNC2)c1-c1ccc2ccccc2n1` [Example 114, (R)-6-(piperidin-3-ylamino)-2-(pyrrolidin-1-yl)-5-(quinolin-2-yl)pyrimidin-4(3H)-one.HCl]: the IC50 under setting [1] amounted to 24 nM. With `O=c1[nH]c(N2CCOCC2)nc(N[C@@H]2CCCNC2)c1-c1nc2ccc(F)cc2s1` [Example 112, (R)-5-(6-fluorobenzo[d]thiazol-2-yl)-2-morpholino-6-(piperidin-3-ylamino)pyrimidin-4(3H)-one.HCl], under setting [1], the IC50 is 46 nM. For the compound `CN(C)[C@@H]1CCN(c2nc(N[C@@H]3CCCNC3)c(-c3ccc4ccccc4n3)c(=O)[nH]2)C1` [Example 164, 2-((R)-3-(dimethylamino)pyrrolidin-1-yl)-6-((R)-piperidin-3-ylamino)-5-(quinolin-2-yl)pyrimidin-4(3H)-one], the IC50 (read-out: IRAK4 IC50) turned out to be 62 nM.

In the case of `CN(C)[C@H]1CCN(c2nc(N[C@@H]3CCCNC3)c(-c3ccc4ccccc4n3)c(=O)[nH]2)C1` [Example 166, 2-((S)-3-(dimethylamino)pyrrolidin-1-yl)-6-((R)-piperidin-3-ylamino)-5-(quinolin-2-yl)pyrimidin-4(3H)-one], the IC50 (read-out: IRAK4 IC50) came to 158 nM. On to `O=c1[nH]c(NC2CCC2)nc(N[C@@H]2C[C@H](CO)[C@@H](O)[C@H]2O)c1-c1nc2cnccc2s1` [Example 55, 2-(Cyclobutylamino)-6-((1R,2S,3R,4R)-2,3-dihydroxy-4-(hydroxymethyl)cyclopentylamino)-5-(thiazolo[4,5-c]pyridin-2-yl)pyrimidin-4(3H)-one.HCl], for which the half-maximal inhibitory concentration (IC50) under setting [1] is 2.5 nM. For `O=c1[nH]c(N2CCN(c3ccccc3Cl)CC2)nc(N[C@@H]2CCCNC2)c1-c1nc2ccccc2s1` [Example 151, (R)-5-(benzo[d]thiazol-2-yl)-2-(4-(2-chlorophenyl)piperazin-1-yl)-6-(piperidin-3-ylamino)pyrimidin-4(3H)-one], the half-maximal inhibitory concentration (IC50) (read-out: IRAK4 IC50) stood at 27 nM. `O=c1[nH]c(N2CC[C@@H](O)C2)nc(N[C@@H]2CCCNC2)c1-c1nc2ccccc2s1` [Example 315]: the IC50 (read-out: IC50) was determined as 17 nM. Turning to `O=c1[nH]c(N2CCOCC2)nc(N[C@@H]2CCCNC2)c1-c1nc2cc(C3CC3)ccc2s1` [Example 346, 5-(5-cyclopropyl-1,3-benzothiazol-2-yl)-2-(morpholin-4-yl)-6-[[(3R)-piperidin-3-yl]amino]-3,4-dihydropyrimidin-4-one trifluoroacetic acid], under setting [1], the IC50 is 330 nM.

As for `O=c1[nH]c(N2CCC3(CCN(S(=O)(=O)c4ccccc4)C3)C2)nc(N[C@@H]2CCCNC2)c1-c1nc2ccccc2s1` (stereo partly shown) [Example 328], the IC50 (read-out: IC50) was determined as 23 nM.

As to `Cc1nccc2sc(-c3c(N[C@@H]4CCCNC4)nc(N4CCOCC4)[nH]c3=O)nc12` [Example 99, (R)-5-(4-Methylthiazolo[4,5-c]pyridin-2-yl)-2-morpholino-6-(piperidin-3-ylamino)pyrimidin-4(3H)-one.HCl], the IC50 under setting [1] was 5.7 nM. In the case of `O=c1[nH]c(N2CCCC2)nc(N[C@@H]2CCCNC2)c1-c1nc2ccccc2s1` [Example 295], the IC50 (read-out: IC50) was 11 nM. In the case of `O=c1[nH]c(N2CCN(c3ccccn3)CC2)nc(N[C@@H]2C[C@H](CO)[C@@H](O)[C@H]2O)c1-c1nc2ccccc2s1` [Example 68, 5-(benzo[d]thiazol-2-yl)-6-((1R,2S,3R,4R)-2,3-dihydroxy-4-(hydroxymethyl)cyclopentylamino)-2-(4-(pyridin-2-yl)piperazin-1-yl)pyrimidin-4(3H)-one], the IC50 (unit inferred, read-out: IRAK4 IC50) stood at 12.1 nM.

As for `COc1ccc(N2CCN(c3nc(N[C@@H]4CCCNC4)c(-c4nc5ccccc5s4)c(=O)[nH]3)CC2)cc1` [Example 154, (R)-5-(benzo[d]thiazol-2-yl)-2-(4-(4-methoxyphenyl)piperazin-1-yl)-6-(piperidin-3-ylamino)pyrimidin-4(3H)-one], the IC50 (read-out: IRAK4 IC50) was found to be 10 nM. Consider `O=c1[nH]c(N2CCOCC2)nc(N[C@@H]2CCCNC2)c1-c1nc(C2CC2)cs1` [Example 100, (R)-5-(4-cyclopropylthiazol-2-yl)-2-morpholino-6-(piperidin-3-ylamino)pyrimidin-4(3H)-one.HCl], for which the IC50 under setting [1] amounted to 433 nM. Regarding `CS(=O)(=O)c1ccccc1N1CCN(c2nc(N[C@@H]3CCCNC3)c(-c3nc4ccccc4s3)c(=O)[nH]2)CC1` [Example 156, (R)-5-(benzo[d]thiazol-2-yl)-2-(4-(2-(methylsulfonyl)phenyl)piperazin-1-yl)-6-(piperidin-3-ylamino)pyrimidin-4(3H)-one], the 50% inhibitory concentration (IC50) (read-out: IRAK4 IC50) was 9 nM.

The values above are taken from patent US9221809B2 (MERCK SHARP & DOHME CORP., priority 2011, dated 2015).
